Measurements taken from patent US12583858B2 (Genentech, Inc., priority 2015, dated 2026).

What follows are compounds tested against T1, TDO2 (Homo sapiens, UniProt P48775) (assay: TDO2 cell assay (NFK GreenScreen, SW48 cells)). Conditions: SW48 cells (high TDO expressing), 200 uM tryptophan, 24 hours; Table 3; read-out: TDO2 Cell Fluor EC50.
T1 construct: decreased levels of NFK in SW48 cells (high TDO expressing cells)
Type: cell-based

T1 sequence (P48775 whole entry): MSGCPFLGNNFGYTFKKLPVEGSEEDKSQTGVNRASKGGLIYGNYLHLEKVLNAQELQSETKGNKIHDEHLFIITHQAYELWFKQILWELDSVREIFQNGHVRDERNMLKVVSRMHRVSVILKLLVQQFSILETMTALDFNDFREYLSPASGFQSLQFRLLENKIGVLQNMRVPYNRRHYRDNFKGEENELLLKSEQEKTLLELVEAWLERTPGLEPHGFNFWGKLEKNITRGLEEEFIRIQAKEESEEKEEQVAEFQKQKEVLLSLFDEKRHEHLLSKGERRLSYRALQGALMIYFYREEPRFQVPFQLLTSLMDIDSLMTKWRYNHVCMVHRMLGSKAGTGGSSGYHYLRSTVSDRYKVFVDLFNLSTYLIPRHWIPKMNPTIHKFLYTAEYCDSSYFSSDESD

SMILES | EC50 [µM]
NS(=O)(=O)N1CCC(O)C(C2c3ccccc3-c3cncn32)CC1 (single isomer, unassigned) [Example 101a, 4-hydroxy-5-(5H-imidazo[5,1-a]isoindol-5-yl)azepane-1-sulfonamide] | > 25
NS(=O)(=O)N1CCC(O)C(C2c3ccccc3-c3cncn32)CC1 (single isomer, unassigned) [Example 101b, 4-hydroxy-5-(5H-imidazo[5,1-a]isoindol-5-yl)azepane-1-sulfonamide] | 5.1
NS(=O)(=O)N1CCC(O)C(C2c3ccccc3-c3cncn32)CC1 (single isomer, unassigned) [Example 101c, 4-hydroxy-5-(5H-imidazo[5,1-a]isoindol-5-yl)azepane-1-sulfonamide] | > 25
OC1c2ccccc2CCC1C1c2ccccc2-c2cncn21 (single isomer, unassigned) [Example 102b] | 19
OC1c2ccccc2CCC1C1c2ccccc2-c2cncn21 (single isomer, unassigned) [Example 102d] | 11
O[C@@H]1c2ccccc2CC[C@H]1[C@@H]1c2ccccc2-c2cncn21 (single isomer, unassigned) [Example 102h] | 8.4
NC(=O)c1ccc2c(n1)CCC(C1c3ccccc3-c3cncn31)C2O (single isomer, unassigned) [Example 104c] | 23
NC(=O)c1ccc2c(n1)CCC(C1c3ccccc3-c3cncn31)C2O (single isomer, unassigned) [Example 104d] | 14
NC(=O)c1ccc2c(n1)CCC(C1c3ccccc3-c3cncn31)C2O (single isomer, unassigned) [Example 104f] | 8.6
NC(=O)c1ccc2c(n1)CCC(C1c3ccccc3-c3cncn31)C2O (single isomer, unassigned) [Example 104h] | 20
NS(=O)(=O)c1ccc2c(c1)C(O)C(C1c3ccccc3-c3cncn31)CC2 (single isomer, unassigned) [Example 105a] | 12
NS(=O)(=O)c1ccc2c(c1)C(O)C(C1c3ccccc3-c3cncn31)CC2 (single isomer, unassigned) [Example 105b] | 8.6
NS(=O)(=O)c1ccc2c(c1)C(O)C(C1c3ccccc3-c3cncn31)CC2 (single isomer, unassigned) [Example 105f] | 16
NS(=O)(=O)c1ccc2c(c1)C(O)C(C1c3ccccc3-c3cncn31)CC2 (single isomer, unassigned) [Example 105g] | 9.2
O[C@@H]1[C@@H]([C@@H]2c3ccccc3-c3cncn32)CCCC1(F)F (single isomer, unassigned) [Example 106a] | > 25
O[C@H]1[C@H]([C@@H]2c3ccccc3-c3cncn32)CCCC1(F)F (single isomer, unassigned) [Example 106c] | 8.1
N#Cc1cnc2c(c1)CCC(C1c3ccccc3-c3cncn31)C2O (single isomer, unassigned) [Example 107a] | 17
N#Cc1cnc2c(c1)CCC(C1c3ccccc3-c3cncn31)C2O (single isomer, unassigned) [Example 107b] | > 25
N#Cc1cnc2c(c1)CCC(C1c3ccccc3-c3cncn31)C2O (single isomer, unassigned) [Example 107c] | 21

SMILES | EC50 [µM]
N#Cc1cnc2c(c1)CCC(C1c3ccccc3-c3cncn31)C2O (single isomer, unassigned) [Example 107e] | 23
CCS(=O)(=O)N1CC(O)(CC2c3ccccc3-c3cncn32)C1 (single isomer, unassigned) [Example 108b] | > 25
OC1C(C2c3ccc(F)cc3-c3cncn32)CC12CCOCC2 (single isomer, unassigned) [Example 109e] | 9.5
OC1C(C2c3ccc(F)cc3-c3cncn32)CC12CCOCC2 (single isomer, unassigned) [Example 109f] | > 25
OC1C(C2c3ccc(F)cc3-c3cncn32)CC12CCOCC2 (single isomer, unassigned) [Example 109h] | > 25
Cc1ccc2c(c1)C(C1COCC1O)n1cncc1-2 (single isomer, unassigned) [Example 110b] | > 25
Cc1ccc2c(c1)C(C1COCC1O)n1cncc1-2 (single isomer, unassigned) [Example 110c] | 3.9
Cc1ccc2c(c1)C(C1COCC1O)n1cncc1-2 (single isomer, unassigned) [Example 110d] | > 25
Nc1ncc2c(n1)CCC(C1c3ccccc3-c3cncn31)C2O (single isomer, unassigned) [Example 111c] | 7.8
Nc1ncc2c(n1)CCC(C1c3ccccc3-c3cncn31)C2O (single isomer, unassigned) [Example 111d] | > 25
Nc1ncc2c(n1)CCC(C1c3ccccc3-c3cncn31)C2O (single isomer, unassigned) [Example 111e] | 5.7
Nc1ncc2c(n1)CCC(C1c3ccccc3-c3cncn31)C2O (single isomer, unassigned) [Example 111f] | > 25
Nc1ncc2c(n1)CCC(C1c3ccccc3-c3cncn31)C2O (single isomer, unassigned) [Example 111g] | > 25
OC1c2cnncc2CCC1C1c2ccccc2-c2cncn21 (single isomer, unassigned) [Example 112a] | > 25
OC1c2cnncc2CCC1C1c2ccccc2-c2cncn21 (single isomer, unassigned) [Example 112c] | > 25
OC1c2cnncc2CCC1C1c2ccccc2-c2cncn21 (single isomer, unassigned) [Example 112d] | 5.6
OC1c2cnncc2CCC1C1c2ccccc2-c2cncn21 (single isomer, unassigned) [Example 112e] | > 25
OC1c2cnncc2CCC1C1c2ccccc2-c2cncn21 (single isomer, unassigned) [Example 112h] | > 25
N#Cc1ccc2c(c1)C(O)C(C1c3ccccc3-c3cncn31)CC2 (single isomer, unassigned) [Example 113b] | 5

Results, then the compound that gave them:

EC50 [µM] | SMILES
0.072 | OC1c2ccccc2CCC1C1c2ccccc2-c2cncn21 (single isomer, unassigned) [Example 102a]
0.32 | OC1c2ccccc2CCC1C1c2ccccc2-c2cncn21 (single isomer, unassigned) [Example 102c]
0.35 | O[C@@H]1c2ccccc2CC[C@H]1[C@@H]1c2ccccc2-c2cncn21 (single isomer, unassigned) [Example 102g]
2.2 | NC(=O)c1ccc2c(n1)CCC(C1c3ccccc3-c3cncn31)C2O (single isomer, unassigned) [Example 104a]
0.2 | NC(=O)c1ccc2c(n1)CCC(C1c3ccccc3-c3cncn31)C2O (single isomer, unassigned) [Example 104b]
3.4 | NC(=O)c1ccc2c(n1)CCC(C1c3ccccc3-c3cncn31)C2O (single isomer, unassigned) [Example 104e]
0.33 | NC(=O)c1ccc2c(n1)CCC(C1c3ccccc3-c3cncn31)C2O (single isomer, unassigned) [Example 104g]
0.077 | NS(=O)(=O)c1ccc2c(c1)C(O)C(C1c3ccccc3-c3cncn31)CC2 (single isomer, unassigned) [Example 105c]
0.044 | NS(=O)(=O)c1ccc2c(c1)C(O)C(C1c3ccccc3-c3cncn31)CC2 (single isomer, unassigned) [Example 105d]
0.46 | NS(=O)(=O)c1ccc2c(c1)C(O)C(C1c3ccccc3-c3cncn31)CC2 (single isomer, unassigned) [Example 105e]
0.51 | NS(=O)(=O)c1ccc2c(c1)C(O)C(C1c3ccccc3-c3cncn31)CC2 (single isomer, unassigned) [Example 105h]
0.17 | O[C@H]1[C@H]([C@H]2c3ccccc3-c3cncn32)CCCC1(F)F (single isomer, unassigned) [Example 106b]
0.93 | O[C@@H]1[C@@H]([C@H]2c3ccccc3-c3cncn32)CCCC1(F)F (single isomer, unassigned) [Example 106d]
2.4 | N#Cc1cnc2c(c1)CCC(C1c3ccccc3-c3cncn31)C2O (single isomer, unassigned) [Example 107d]
0.42 | N#Cc1cnc2c(c1)CCC(C1c3ccccc3-c3cncn31)C2O (single isomer, unassigned) [Example 107f]
0.87 | N#Cc1cnc2c(c1)CCC(C1c3ccccc3-c3cncn31)C2O (single isomer, unassigned) [Example 107g]
0.16 | N#Cc1cnc2c(c1)CC[C@H]([C@@H]1c3ccccc3-c3cncn31)[C@H]2O (single isomer, unassigned) [Example 107h]
2.8 | CCS(=O)(=O)N1CC(O)(CC2c3ccccc3-c3cncn32)C1 (single isomer, unassigned) [Example 108a]
0.62 | OC1C(C2c3ccc(F)cc3-c3cncn32)CC12CCOCC2 (single isomer, unassigned) [Example 109a]
3.9 | OC1C(C2c3ccc(F)cc3-c3cncn32)CC12CCOCC2 (single isomer, unassigned) [Example 109b]
3.7 | OC1C(C2c3ccc(F)cc3-c3cncn32)CC12CCOCC2 (single isomer, unassigned) [Example 109d]
0.15 | OC1C(C2c3ccc(F)cc3-c3cncn32)CC12CCOCC2 (single isomer, unassigned) [Example 109g]
0.52 | Cc1ccc2c(c1)C(C1COCC1O)n1cncc1-2 (single isomer, unassigned) [Example 110a]
0.54 | Nc1ncc2c(n1)CCC(C1c3ccccc3-c3cncn31)C2O (single isomer, unassigned) [Example 111a]
0.12 | Nc1ncc2c(n1)CCC(C1c3ccccc3-c3cncn31)C2O (single isomer, unassigned) [Example 111b]
3.8 | OC1c2cnncc2CCC1C1c2ccccc2-c2cncn21 (single isomer, unassigned) [Example 112f]
0.27 | OC1c2cnncc2CCC1C1c2ccccc2-c2cncn21 (single isomer, unassigned) [Example 112g]
